Assay results reported in patent US20250205339A1, “FORMULATION HAVING IMPROVED ABSORBABILITY OF LOW-SOLUBLE AND/OR LOW-MEMBRANE-PERMEABLE DRUG” (MEDRx Co., Ltd., priority 2022, published 2025).
≈ marks a conversion by molar mass, not a printed value. Read-outs that look alike come from different tables or passages of the source. Blank lines part the entries; values can stand above or below the compound they belong to.

What was measured:
[1] = tested on: Caco-2 cells
[2] = tested on: Caco-2 cells; assay: Cell membrane integrity by Trans-Epithelial Electrical Resistance (TEER); details: Example 1; Caco-2 monolayer exposed to VZ185 50 μg/mL with 10 mM ionic liquid or control composition (5 mM where labelled); standard value >1000Ω
[3] = tested on: Caco-2 cells; remark: listed apart in the source
Method: In order to study an ionic liquid for enhancing the intestinal absorption effect of a drug with low solubility and/or low permeability, various types of ionic liquids were prepared and the permeability of a drug with low solubility and/or low permeability in compositions comprising the prepared ionic liquid and the drug was evaluated. Specifically, the permeability of a drug was evaluated by the Caco-2 cell membrane permeation assay according to the following procedures for compositions comprising VZ185, which is PROTAC, used as a model drug with low solubility and/or low permeability and each ionic liquid.
Sodium hydroxide (0.4 g) was dissolved in water (100 mL) to prepare 0.1N NaOH solution. MES (2-morpholinoethanesulfonic acid, 1.493 g) and D-glucose (2.453 g) were dissolved in HBSS (+) (free of phenol red) (600 mL), the solution was adjusted to pH 6.5 with 0.1N NaOH solution, and then HBSS (+) (free of phenol red) was further added and adjusted to 700 mL. The solution was sterilized by filtration through 0.22 μm membrane filter to prepare Transport Buffer (A).
HEPES (1.192 g), D-glucose (1.752 g) and BSA (1.25 g) were then dissolved in HBSS (+) (free of phenol red) (400 mL), the solution was adjusted to pH 7.4 with 0.1N NaOH solution, and then HBSS (+) (free of phenol red) was further added and adjusted to 500 mL. The solution was sterilized by filtration through 0.22 μm membrane filter to prepare Transport Buffer (B). • (2) Preparation of Sample Solution
VZ185 (1.5 mg) was mixed with 1% TWEEN 80 (1.5 mL) to 1 mg/ml of VZ185 solution. Each organic acid (0.05 mmol) which is an anion ingredient and each cationic lipid (0.05 mmol) which is a cation ingredient were mixed with Transport Buffer (A) (4.98 mL) to prepare an ionic liquid composition comprising 10 mM each of the ingredients.
1 mg/mL of VZ185 solution (25 μL) and the ionic liquid composition or control composition (475 μL) were mixed to prepare 50 μg/mL of a drug-ionic liquid composition or a drug-control composition. […]

[4] = Parallel Artificial Membrane Permeation Assay (PAMPA); assay type: in vitro ADME; details: Examples 3 and 4, FIG. 1-3; isostearic acid-DODMA, isostearic acid-DODAP, oleic acid-DODMA (5 mM each ingredient); control PBS
Method: In this assay, VZ185 and BI-3663 were used as a drug with low solubility and/or low permeability, and isostearic acid-DODMA, isostearic acid-DODAP and oleic acid-DODMA were used as an ionic liquid. As the control, PBS was used.
Specifically, the permeability of the drugs was evaluated by Parallel Artificial Membrane Permeability Assay-Skin Kit (BioAssay Systems) according to the following procedures. • (1) Preparation of Phosphate Buffer Solution (PBS)
One tablet of Phosphate Buffered Saline Tablet (Sigma) was dissolved in 200 mL of water to prepare PBS. • (2) Preparation of Sample Solution
Also, PBS (475 μL) was mixed with 1 mg/mL of VZ185 solution (25 μL) to prepare 50 μg/mL of a drug-control solution as the control.
4% Lecithin/dodecane solution (5 μL) was then added into each donor well and allowed to stand. PBS (300 μL) was added into each acceptor well and 50 μg/mL of the drug-ionic liquid composition (200 μL) was added into each donor well, and the mixture was incubated in a thermostatic bath at 37° C. […] The sample solution of BI-3663 was prepared according to the same procedure.

[5] = cited from earlier work
[6] = tested on: Caco-2 cells; remark: listed apart in the source
[7] = tested on: Caco-2 cells; assay: Cell membrane integrity by permeability of Lucifer Yellow; details: Example 1; after VZ185 permeation test with 10 mM ionic liquid or control composition (5 mM where labelled); 60 min; standard value <1%

Compound: CC(O)C(=O)O (stereo not shown) [Lactic acid, lactic acid]
- TEER ([1]; human, 10 mM): 550 Ω

Compound: CCCCCCCC/C=C\CCCCCCCC(=O)[O-].[Na+] [Sodium oleate, sodium oleate]
- TEER [2]: 100 Ω

Compound: c1ccc(-c2ccc(C(c3ccccc3)n3ccnc3)cc2)cc1 (stereo not shown) [bifonazole]
- absorbability of bifonazole by use of the ionic liquid [3]: remarkably improved
- absorbability of the drug by the PAMPA with ionic liquids [4]: remarkably improved

Compound: Oleic acid-Arginine
- TEER [1]: 3560 Ω
- Lucifer Yellow (%) [6]: 0.1%

Compound: O=C([O-])CCCCCCCNC(=O)c1ccccc1O.[Na+] [SNAC, salcaprozate sodium]
- Lucifer Yellow (%) [7]: 4.3%
- TEER [2]: 210 Ω

Compound: Oleic acid-Trometamol
- TEER [1]: 4750 Ω
- Lucifer Yellow (%) [6]: 0.1%

Continued, in another order:

- absorbability of VZ185 by use of the ionic liquids [3]: remarkably improved
- absorbability of the drug by the PAMPA with ionic liquids [4]: remarkably improved
Compound: COc1cc(-c2cn(C)c(=O)c3cnccc23)cc(OC)c1CN1CCN(CCCCCOc2cc(-c3scnc3C)ccc2CNC(=O)[C@@H]2C[C@@H](O)CN2C(=O)[C@@H](NC(=O)C2(F)CC2)C(C)(C)C)CC1 [VZ185]
- Solubility [5]: 85 µg/mL (≈ 85.4 µM)

- absorbability of BI-3663 by use of the ionic liquids [3]: remarkably improved
- absorbability of the drug by the PAMPA with ionic liquids [4]: remarkably improved
Compound: COc1cc(C(=O)NCCOCCOCCOCCC(=O)Nc2cccc3c2C(=O)N(C2CCC(=O)NC2=O)C3=O)ccc1Nc1ncc(C(F)(F)F)c(Oc2cccc3c2C(=O)CC3)n1 (stereo not shown) [BI-3663]
- Solubility [5]: <1 µg/mL
